Assay results published in patent US10681909B2, “Herbicidal triazoles” (FMC Corporation, priority 2014, dated 2020).

How the values were obtained:
oilseed rape = experiment: Test C preemergence; format: in vivo, Brassica napus; conditions: for Plant response rating (scale of 0 to 100 where 0 is no effect and 100 is complete control): Oilseed Rape, preemergence; for Oilseed Rape plant response rating (0 to 100): Preemergence, visual rating after 13 to 15 d
Source text: Seeds of plant species selected from blackgrass (Alopecurus myosuroides), ryegrass, Italian (Italian ryegrass, Lolium multiflorum), wheat (winter wheat, Triticum aestivum), galium (catchweed bedstraw, Galium aparine), corn (Zea mays), crabgrass, large (large crabgrass, Digitaria sanguinalis), foxtail, giant, (giant foxtail, Setaria faberii), johnsongrass (Sorghum halepense), lambsquarters (Chenopodium album), morningglory (Ipomoea coccinea), nutsedge, yellow (yellow nutsedge, Cyperus esculentus), pigweed (Amaranthus retroflexus), ragweed (common ragweed, Ambrosia elatior), soybean (Glycine max), barnyardgrass (Echinochloa crus-galli), oilseed rape (Brassica napus), waterhemp (common waterhemp, Amaranthus rudis), and velvetleaf (Abutilon theophrasti) were planted into a blend of loam soil and sand and treated preemergence with test chemicals formulated in a non-phytotoxic solvent mixture which included a surfactant. At the same time, plants selected from these crop and weed species and also chickweed (common chickweed, Stellaria media), oat, wild (wild oat, Avena fatua), and kochia (Kochia scoparia), were planted in pots containing Sunshine Redi-Earth® planting medium comprising spaghnum peat moss, vermiculite, starter nutrients and dolomitic limestone and treated with postemergence applications of test chemicals formulated in the same manner. Plants ranged in height from 2 to 18 cm (1- to 4-leaf stage) for postemergence treatments. […] A dash (-) response means no test result.

bluegrass = experiment: Test D preemergence; format: in vivo, Poa annua; conditions: for Plant response rating: Bluegrass: scale 0 to 100
Source text: (§1) Seeds of plant species selected from bluegrass (annual bluegrass, Poa annua), blackgrass (Alopecurus myosuroides), canarygrass (Phalaris minor), chickweed (common chickweed, Stellaria media), galium (catchweed bedstraw, Galium aparine), bromegrass, down (downy bromegrass, Bromus tectorum), Russian thistle (Salsola kali), field poppy (Papaver rhoeas), field violet (Viola arvensis), foxtail, green (green foxtail, Setaria viridis), deadnettle (henbit deadnettle, Lamium amplexicaule), ryegrass, Ital. (Italian ryegrass, Lolium multiflorum), kochia (Kochia scoparia), lambsquarters (Chenopodium album), oilseed rape (Brassica napus), pigweed (Amaranthus retroflexus), chamomile (scentless chamomile, Matricaria inodora), speedwell (bird's-eye speedwell, Veronica persica), barley, spring (spring barley, Hordeum vulgare), wheat, spring (spring wheat, Triticum aestivum), buckwheat, wild (wild buckwheat, Polygonum convolvulus), wild mustard (Sinapis arvensis), oat, wild (wild oat, Avena fatua), radish, wild (wild radish, Raphanus raphanistrum), […]), barley, winter (winter barley, Hordeum vulgare), and wheat, winter (winter wheat, Triticum aestivum) were planted into a silt loam soil and treated preemergence with test chemicals formulated in a non-phytotoxic solvent mixture which included a surfactant. At the same time, these species were planted in pots containing Sunshine Redi-Earth® planting medium comprising spaghnum peat moss, vermiculite, starter nutrients and dolomitic limestone and treated with postemergence applications of the test chemicals formulated in the same manner. Plants ranged in height from 2 to 18 cm (1- to 4-leaf stage). Treated plants and controls were maintained in a controlled growth environment for 14 to 21 d after which time all species were compared to controls and visually evaluated. […] A dash (-) response means no test result.

galium = experiment: Test D preemergence; format: in vivo, Galium aparine; conditions: for Plant response rating: Galium: scale 0 to 100
Source text: as §1

bromegrass, down [1] = experiment: Test D preemergence; format: in vivo, Bromus tectorum; conditions: for Plant response rating: Bromegrass, Down: scale 0 to 100
Source text: as §1

Russian thistle = experiment: Test D preemergence; format: in vivo, Salsola kali; conditions: for Plant response rating: Russian Thistle: scale 0 to 100
Source text: as §1

lambsquarters = experiment: Test D preemergence; format: in vivo, Chenopodium album; conditions: for Plant response rating: Lambsquarters: scale 0 to 100
Source text: as §1

blackgrass = experiment: Test D postemergence; format: in vivo, Alopecurus myosuroides; conditions: scale 0 to 100
Source text: as §1

canarygrass = experiment: Test D postemergence; format: in vivo, Phalaris minor; conditions: scale 0 to 100
Source text: as §1

bromegrass, down [2] = experiment: Test D postemergence; format: in vivo, Bromus tectorum; conditions: scale 0 to 100
Source text: as §1

chamomile = experiment: Test D postemergence; format: in vivo, Matricaria inodora; conditions: scale 0 to 100
Source text: as §1

wheat, spring = experiment: Test D postemergence; format: in vivo, Triticum aestivum; conditions: scale 0 to 100
Source text: as §1

wheat, winter = experiment: Test D postemergence; format: in vivo, Triticum aestivum; conditions: scale 0 to 100
Source text: as §1

buckwheat, wild = experiment: Test D postemergence; format: in vivo, Polygonum convolvulus; conditions: scale 0 to 100
Source text: as §1

[3] = 16 g ai/ha, 0 is no effect, 100 is complete control

## CCOc1nc(-c2ccccc2)nn1Cc1ccnc(C(F)(F)F)c1 [Compound 27]
Oilseed rape; 125 g ai/ha
  Plant response rating (scale of 0 to 100 where 0 is no effect and 100 is complete control): 100
Oilseed rape; 250 g ai/ha
  Plant response rating (scale of 0 to 100 where 0 is no effect and 100 is complete control): 100
Oilseed rape; 31 g ai/ha
  Oilseed Rape plant response rating (0 to 100): 90
Oilseed rape; 62 g ai/ha
  Oilseed Rape plant response rating (0 to 100): 90
bluegrass; [3]
  Plant response rating (0 to 100), Bluegrass: 20
bluegrass; 31 g ai/ha
  Plant response rating: Bluegrass: 55
bluegrass; 62 g ai/ha
  Plant response rating: Bluegrass: 85
bluegrass; 125 g ai/ha
  Plant response rating: Bluegrass: 100
galium; [3]
  Plant response rating (0 to 100), Galium: 70
galium; 62 g ai/ha
  Plant response rating: Galium: 100
galium; 125 g ai/ha
  Plant response rating: Galium: 100
bromegrass, down [1]; [3]
  Plant response rating (0 to 100), Bromegrass, Down: 0
bromegrass, down [1]; 31 g ai/ha
  Plant response rating: Bromegrass, Down: 20
bromegrass, down [1]; 62 g ai/ha
  Plant response rating: Bromegrass, Down: 65
bromegrass, down [1]; 125 g ai/ha
  Plant response rating: Bromegrass, Down: 70
Russian thistle; [3]
  Plant response rating (0 to 100), Russian Thistle: 75
Russian thistle; 62 g ai/ha
  Plant response rating: Russian Thistle: 85
Russian thistle; 125 g ai/ha
  Plant response rating: Russian Thistle: 85
lambsquarters; [3]
  Plant response rating (0 to 100), Lambsquarters: 85
lambsquarters; 62 g ai/ha
  Plant response rating: Lambsquarters: 95
lambsquarters; 125 g ai/ha
  Plant response rating: Lambsquarters: 95
blackgrass; 16 g ai/ha
  Plant response rating: Blackgrass: 45
blackgrass; 31 g ai/ha
  Plant response rating: Blackgrass: 50
blackgrass; 62 g ai/ha
  Plant response rating: Blackgrass: 55
blackgrass; 125 g ai/ha
  Plant response rating: Blackgrass: 65
canarygrass; 16 g ai/ha
  Plant response rating: Canarygrass: 50
canarygrass; 31 g ai/ha
  Plant response rating: Canarygrass: 65
canarygrass; 62 g ai/ha
  Plant response rating: Canarygrass: 70
canarygrass; 125 g ai/ha
  Plant response rating: Canarygrass: 60
bromegrass, down [2]; 16 g ai/ha
  Plant response rating: Bromegrass, Down: 25
bromegrass, down [2]; 31 g ai/ha
  Plant response rating: Bromegrass, Down: 30
bromegrass, down [2]; 62 g ai/ha
  Plant response rating: Bromegrass, Down: 50
bromegrass, down [2]; 125 g ai/ha
  Plant response rating: Bromegrass, Down: 65
chamomile; 16 g ai/ha
  Plant response rating: Chamomile: 15
chamomile; 31 g ai/ha
  Plant response rating: Chamomile: 15
chamomile; 62 g ai/ha
  Plant response rating: Chamomile: 20
chamomile; 125 g ai/ha
  Plant response rating: Chamomile: 35
wheat, spring; 16 g ai/ha
  Plant response rating: Wheat, Spring: 15
wheat, spring; 31 g ai/ha
  Plant response rating: Wheat, Spring: 15
wheat, spring; 62 g ai/ha
  Plant response rating: Wheat, Spring: 20
wheat, spring; 125 g ai/ha
  Plant response rating: Wheat, Spring: 35
wheat, winter; 16 g ai/ha
  Plant response rating: Wheat, Winter: 25
wheat, winter; 31 g ai/ha
  Plant response rating: Wheat, Winter: 25
wheat, winter; 62 g ai/ha
  Plant response rating: Wheat, Winter: 30
wheat, winter; 125 g ai/ha
  Plant response rating: Wheat, Winter: 30
buckwheat, wild; 16 g ai/ha
  Plant response rating: Buckwheat, Wild: 65
buckwheat, wild; 31 g ai/ha
  Plant response rating: Buckwheat, Wild: 80
buckwheat, wild; 62 g ai/ha
  Plant response rating: Buckwheat, Wild: 70
buckwheat, wild; 125 g ai/ha
  Plant response rating: Buckwheat, Wild: 85
